This passage reports IC50 and Activity results from ChEMBL document CHEMBL1141326, “An HIV RNase H inhibitory 1,3,4,5-tetragalloylapiitol from the African plant Hylodendron gabunensis” (J Nat Prod, 2007).

Calls of active or inactive are those of the source. No cut-off for these calls is given here.

A short description of assay [1]: Inhibition of human RNase H by FRET assay.
In the next assay the test system is Escherichia coli. Description: Inhibition of Escherichia coli RNase H at 10 uM by FRET assay.
Assay [2] is described as follows: Inhibition of HIV2 RNase H by FRET assay. Further details: species or system Human immunodeficiency virus 2.
The nature of assay [3]: Inhibition of HIV1 RNase H by FRET assay. Further details: species or system Human immunodeficiency virus 1.

As to `O=C(OC[C@H](OC(=O)c1cc(O)c(O)c(O)c1)C(O)(COC(=O)c1cc(O)c(O)c(O)c1)COC(=O)c1cc(O)c(O)c(O)c1)c1cc(O)c(O)c(O)c1`, the IC50 in assay [1] is 1.5 µM; in assay [2] it was 0.13 µM; in assay [3], 0.24 µM. Moreover, in the assay on Escherichia coli, the result was inactive.

A word on the IC50: it is the concentration at which inhibition is half-maximal.
